In patent US20250223281A1, “ANTIDIABETIC COMPOUNDS AND COMPOSITIONS” (REZUBIO PHARMACEUTICALS CO., LTD, priority 2022, published 2025):

Target: T1, GPR40 (Homo sapiens, UniProt O14842)
T1 construct: expressed in transfected cells; host or cells: HEK293 cells stably expressing GPR40 (Hygromycin selection)
Assay: IP1 accumulation assay in HEK293 cells stably expressing GPR40
Assay type: cell-based
Experimental: IP1 accumulation assay was used to evaluate the potency of compounds. HEK293 cells stably expressing GPR40 were cultured in 5% CO2 incubator (ThermoFisher) in maintenance media (Dulbecco's modified Eagle's medium with 4.5 g/L of glucose, 10% fetal bovine serum, 100 μg/mL Hygromycin, and Penicillin (100 U/mL)/Streptomycin (100 μg/mL)) till 100% confluency. Cells were harvested freshly, spun down at 300×g for 5 min, and resuspended in pre-warmed 1× stimulant buffer from Cisbio IP-One HTRF Detection kit (Cisbio). Cell density was adjusted to 2.0×10^6 cells/mL. DMSO was used as blank control and AMG-1638 (CAS #: 1142214-62-7) as positive control. Compounds were prepared at 10 mM in DMSO and 5 nL of 3× serially diluted compounds (10 concentrations) were added to each well of the 384-LDV assay plate (Corning) by using ECHO 550 (Labcyte). Five μL of cells in suspension were transferred into each well by using Multidrop Combi Reagent Dispenser (ThermoFisher). Assay plate was then sealed and incubated at 37° C. for 2 hours. IP-d2 reagent and anti-IP1 reagent were prepared following the manual (Cisbio). Five μL of IP1-d2 and then 5 μL of anti-IP1 antibody was added to each well sequentially. Assay plate was incubated at room temperature for 60 min and then read at 665 nm/615 nm on an Envision plate reader (PerkinElmer). The ratio of values obtained at 665 nm and 615 nm was used for calculation of IP1 accumulation: % Effect=(Ratiosample−Ratioblank)/(RatioAMG-1638−Ratioblank)×100. Dose curve was fitted and EC50 of each compound was calculated by using XLFit.

[1] = IP1 accumulation, HEK293 cells stably expressing GPR40, 2 hours at 37° C., % effect relative to AMG-1638, table of Biological Example 1
[2] = Tables A-1a to A-7b (structure-property relationship), obtained by methods of Biological Example 1

T1 sequence (O14842 whole entry): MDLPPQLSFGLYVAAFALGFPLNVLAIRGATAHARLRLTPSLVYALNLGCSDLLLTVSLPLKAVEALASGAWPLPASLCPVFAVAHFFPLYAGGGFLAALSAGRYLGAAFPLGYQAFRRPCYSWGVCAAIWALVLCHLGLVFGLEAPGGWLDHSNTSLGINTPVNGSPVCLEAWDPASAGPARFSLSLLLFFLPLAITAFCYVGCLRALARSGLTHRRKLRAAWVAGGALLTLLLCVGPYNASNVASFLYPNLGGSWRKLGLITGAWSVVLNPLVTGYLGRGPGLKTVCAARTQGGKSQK

Row | EC50 [1] [µM] | EC50 [2] [µM] | Structure (SMILES)
1 | 0.00299 | 0.00299 | COc1ccc(C(=O)N(CC(C)(C)CCCCCCn2cc(CCCCCCCCCCC(=O)NCCN(CCC(=O)NCCN)CCC(=O)NCCN)nn2)c2cccc(C)n2)c(N2CCC(COc3cc([C@@H](CC(=O)O)C4CC4)ccn3)CC2)c1 [Example 74]
2 | 0.00075 | 0.00192 | COc1ccc(C(=O)N(CC(C)(C)CCCCCCn2cc(CCCCCCCCC(=O)NCCN(CCC(=O)NCCN)CCC(=O)NCCN)nn2)c2cccc(C)n2)c(N2CCC(COc3cc([C@@H](CC(=O)O)C4CC4)ccn3)CC2)c1 [Example 75]
3 | > 2.7 |  | COc1ccc(F)c(-c2ccc(COc3cccc([C@@H](CC(=O)O)C4CC4)c3)cc2C(C)(C)c2cn(CCCCCCCCCCCC(=O)NCC[N+](C)(CCC(=O)NCCN)CCC(=O)NCCN)nn2)c1 [Example 87]
4 | 0.0026 | 0.0026 | COc1ccc(F)c(-c2ccc(COc3cccc([C@@H](CC(=O)O)C4CC4)c3)cc2CC(C)(C)Cc2cn(CCCCCCCCCCCCCCCC(=O)NCC[N+](C)(CCC(=O)NCCN)CCC(=O)NCCN)nn2)c1 [Example 90]
5 | > 10 | > 10 | COc1ccc(F)c(-c2ccc(COc3cccc([C@@H](CC(=O)O)C4CC4)c3)cc2CC(C)(C)Cn2cc(CCCCCCC(=O)NCC[N+](C)(CCC(=O)NCCN)CCC(=O)NCCN)nn2)c1 [Example 95]
6 | 1.05 | 1.05 | COc1ccc(F)c(-c2ccc(COc3cccc([C@@H](CC(=O)O)C4CC4)c3)cc2CC(C)(C)Cc2cn(CCCCCCCCCC(=O)NCC[N+](C)(CCC(=O)NCCN)CCC(=O)NCCN)nn2)c1 [Example 96]
7 | 0.328 | 0.328 | COc1ccc(F)c(-c2ccc(COc3cccc([C@@H](CC(=O)O)C4CC4)c3)cc2CC(C)(C)Cc2cn(CCCCCCCCCCCC(=O)NCC[N+](C)(CCC(=O)NCCN)CCC(=O)NCCN)nn2)c1 [Example 97]
8 | 0.00354 | 0.00354 | COc1ccc(C(=O)N(CC(C)(C)CCCCCCn2cc(CCCCCCC(=O)NCCN(CCC(=O)NCCN)CCC(=O)NCCN)nn2)c2cccc(C)n2)c(N2CCC(COc3cc([C@@H](CC(=O)O)C4CC4)ccn3)CC2)c1 [Example 98]
9 | 0.00458 | 0.00458 | COc1ccc(C(=O)N(CC(C)(C)CCCCCCn2cc(CCCCCCC(=O)NCC[N+](C)(CCC(=O)NCCN)CCC(=O)NCCN)nn2)c2cccc(C)n2)c(N2CCC(COc3cc([C@@H](CC(=O)O)C4CC4)ccn3)CC2)c1 [Example 99]
10 | 0.00405 | 0.00405 | COc1ccc(F)c(-c2ccc(COc3cccc([C@@H](CC(=O)O)C4CC4)c3)cc2CC(C)(C)Cc2cn(CCCCCCCCCCCCCCC(=O)NCC[N+](C)(CCC(=O)NCCN)CCC(=O)NCCN)nn2)c1 [Example 102]
11 | 0.0215 |  | COc1ccc(F)c(-c2ccc(COc3cccc([C@@H](CC(=O)O)C4CC4)c3)cc2C(C)(C)c2cn(CCCCCCCCCCCCCCCC(=O)NCC[N+](C)(CCC(=O)NCCN)CCC(=O)NCCN)nn2)c1 [Example 103]
12 | 0.618 | 0.618 | COc1ccc(C(=O)N(CC(C)(C)CCn2cc(CCCCCCCCC(=O)NCCN(CCC(=O)NCCN)CCC(=O)NCCN)nn2)c2cccc(C)n2)c(N2CCC(COc3cc([C@@H](CC(=O)O)C4CC4)ccn3)CC2)c1 [Example 110]

The remaining lines, values behind:

Row | Structure (SMILES) | EC50 [1] [µM] | EC50 [2] [µM]
13 | CCCCCNC(=O)CCCCCCCCCCCCCCCCCc1cn(CC(C)(C)Cc2cc(COc3cccc([C@@H](CC(=O)O)C4CC4)c3)ccc2-c2cc(OC)ccc2F)nn1 [Example 76] | 0.112 | 
14 | C[C@H](C(=O)O)[C@H](c1ccc2c(c1)O[C@@H](C1CCN(Cc3cc(-c4cn(CCCCCCCCCC(=O)NCCN(CCC(=O)NCCN)CCC(=O)NCCN)nn4)ccc3OC(F)(F)F)CC1)CC2)C1CC1 [Example 77] | 8.4 | > 10
15 | C[C@H](C(=O)O)[C@H](c1ccc2c(c1)O[C@@H](C1CCN(Cc3cc(-n4cc(CCCCCCCCCCCCCC(=O)NCCN(CCC(=O)NCCN)CCC(=O)NCCN)nn4)ccc3OC(F)(F)F)CC1)CC2)C1CC1 [Example 78] | 0.0014 | 0.0014
16 | C[C@H](C(=O)O)[C@H](c1ccc2c(c1)O[C@@H](C1CCN(Cc3cc(-n4cc(CCCCCCCCCCC(=O)NCCN(CCC(=O)NCCN)CCC(=O)NCCN)nn4)ccc3OC(F)(F)F)CC1)CC2)C1CC1 [Example 79] | 0.183 | 0.183
17 | C[C@H](C(=O)O)[C@H](c1ccc2c(c1)O[C@@H](C1CCN(Cc3cc(-n4cc(CCCCCCCCC(=O)NCCN(CCC(=O)NCCN)CCC(=O)NCCN)nn4)ccc3OC(F)(F)F)CC1)CC2)C1CC1 [Example 80] | > 5 | > 5
18 | COc1ccc(F)c(-c2ccc(COc3cccc([C@@H](CC(=O)O)C4CC4)c3)cc2CC(C)(C)Cn2cc(CCCCCCCCCCCCCCCCCC(=O)NCCCN(CC(=O)O)CC(=O)O)nn2)c1 [Example 81] | 0.0022 | 
19 | C[C@H](C(=O)O)[C@H](c1ccc2c(c1)O[C@@H](C1CCN(Cc3cc(-c4cn(CCCCCCCCCC(=O)NCC[N+](C)(CCC(=O)NCCN)CCC(=O)NCCN)nn4)ccc3OC(F)(F)F)CC1)CC2)C1CC1 [Example 82] | > 10 | > 10
20 | C[C@H](C(=O)O)[C@H](c1ccc2c(c1)O[C@@H](C1CCN(Cc3cc(-c4cn(CCCCCCCCCCCC(=O)NCC[N+](C)(CCC(=O)NCCN)CCC(=O)NCCN)nn4)ccc3OC(F)(F)F)CC1)CC2)C1CC1 [Example 83] | 0.651 | 0.65
21 | C[C@H](C(=O)O)[C@H](c1ccc2c(c1)O[C@@H](C1CCN(Cc3cc(-c4cn(CCCCCCCCCCCCCCCC(=O)NCC[N+](C)(CCC(=O)NCCN)CCC(=O)NCCN)nn4)ccc3OC(F)(F)F)CC1)CC2)C1CC1 [Example 84] | 0.00074 | 0.00074
22 | CCCCCOC(=O)CCCCCCCCCCCCCCCCCc1cn(CC(C)(C)Cc2cc(COc3cccc([C@@H](CC(=O)O)C4CC4)c3)ccc2-c2cc(OC)ccc2F)nn1 [Example 85] | > 1.3 | 
23 | C[C@H](C(=O)O)[C@H](c1ccc2c(c1)O[C@@H](C1CCN(Cc3cc(-n4cc(CCCCCCCCCCC(=O)NCC[N+](C)(CCC(=O)NCCN)CCC(=O)NCCN)nn4)ccc3OC(F)(F)F)CC1)CC2)C1CC1 [Example 86] | 0.195 | 0.195
24 | COc1ccc(F)c(-c2ccc(COc3cccc([C@@H](CC(=O)O)C4CC4)c3)cc2OC(C)(C)Cn2cc(CCCCCCCCCCCCCC(=O)NCCN(CCC(=O)NCCN)CCC(=O)NCCN)nn2)c1 [Example 88] | 0.0228 | 
25 | COc1ccc(F)c(-c2ccc(COc3cccc([C@@H](CC(=O)O)C4CC4)c3)cc2CC(C)(C)Cc2cn(CCCCCCCCCCCCCCCC(=O)NCCN(CCC(=O)NCCN)CCC(=O)NCCN)nn2)c1 [Example 89] | 0.00219 | 0.00219
26 | COc1ccc(F)c(-c2ccc(COc3cccc([C@@H](CC(=O)O)C4CC4)c3)cc2CC(C)(C)Cc2cn(CCCCCCCCCCCCCCCCCC(=O)NCC[N+](C)(C)CCCS(=O)(=O)O)nn2)c1 [Example 91] | 0.00152 | 
27 | COc1ccc(F)c(-c2ccc(COc3cccc([C@@H](CC(=O)O)C4CC4)c3)cc2CC(C)(C)Cc2cn(CCCCCCCCCCCC(=O)NCCN(CCC(=O)NCCN)CCC(=O)NCCN)nn2)c1 [Example 92] | 0.212 | 0.212
28 | COc1ccc(F)c(-c2ccc(COc3cccc([C@@H](CC(=O)O)C4CC4)c3)cc2CC(C)(C)Cn2cc(CCCCCCCCCCCCCCCCCC(=O)NCCC[N+](C)(CC(=O)O)CC(=O)O)nn2)c1 [Example 93] | 0.00458 | 
29 | COc1ccc(F)c(-c2ccc(COc3cccc([C@@H](CC(=O)O)C4CC4)c3)cc2CC(C)(C)Cn2cc(CCCCCCC(=O)NCCN(CCC(=O)NCCN)CCC(=O)NCCN)nn2)c1 [Example 94] | 1.95 | 1.95
30 | COc1ccc(F)c(-c2ccc(COc3cccc([C@@H](CC(=O)O)C4CC4)c3)cc2CC(C)(C)Cn2cc(CCCCCCCCCC(=O)NCCCN(CC(=O)O)CC(=O)O)nn2)c1 [Example 104] | > 10 | 
31 | COc1ccc(F)c(-c2ccc(COc3cccc([C@@H](CC(=O)O)C4CC4)c3)cc2CC(C)(C)Cn2cc(CCCCCCCCCC(=O)NCCC[N+](C)(CC(=O)[O-])CC(=O)O)nn2)c1 (some centres unmarked) [Example 105] | > 10 | 
32 | COc1ccc(F)c(-c2ccc(COc3cccc([C@@H](CC(=O)O)C4CC4)c3)cc2CC(C)(C)Cn2cc(CCCCCCCCCCCCCC(=O)NCCCN(CC(=O)O)CC(=O)O)nn2)c1 [Example 106] | 0.696 | 
33 | COc1ccc(F)c(-c2ccc(COc3cccc([C@@H](CC(=O)O)C4CC4)c3)cc2CC(C)(C)Cn2cc(CCCCCCCCCCCCCC(=O)NCCC[N+](C)(CC(=O)O)CC(=O)O)nn2)c1 [Example 107] | 1.31 | 
34 | COc1ccc(F)c(-c2ccc(COc3cccc([C@@H](CC(=O)O)C4CC4)c3)cc2CC(C)(C)Cn2cc(CCCCCCCCCCCCCCC(=O)NCCCN(CC(=O)O)CC(=O)O)nn2)c1 [Example 108] | 0.312 | 
35 | COc1ccc(F)c(-c2ccc(COc3cccc([C@@H](CC(=O)O)C4CC4)c3)cc2CC(C)(C)Cn2cc(CCCCCCCCCCCCCCC(=O)NCCC[N+](C)(CC(=O)O)CC(=O)O)nn2)c1 [Example 109] | > 1 | 
